Measurements from PubChem BioAssay (NCI).
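In this assay, cells in 96-well plates receive the compound at five concentrations for 48 hours. Endpoints are linearly interpolated between the surrounding concentrations. GI50 = concentration required for 50% inhibition of growth. TGI: concentration producing complete growth inhibition.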

What was measured:
Experiment in all cases: NCI-60 cell line screen, 48 h
[1] = test system: HCT-116 colon
[2] = test system: HL-60(TB) leukemia
[3] = test system: MDA-MB-435
[4] = test system: MDA-N
[5] = test system: SK-MEL-2 melanoma
[6] = test system: SNB-75 CNS
[7] = test system: SW-620 colon
[8] = test system: HCT-15 colon
[9] = test system: OVCAR-3 ovarian
[10] = test system: SN12C renal

Structure (SMILES) | TGI [1] | TGI [2] | TGI [3] | TGI [4] | TGI [5] | TGI [6] | TGI [7] | TGI [8] | TGI [9] | TGI [10] | GI50 [1] | GI50 [8] | GI50 [2] | GI50 [3] | GI50 [9] | GI50 [5] | GI50 [10] | GI50 [6] | GI50 [7]
O=c1[nH]/c(=C/c2ccc(OCc3ccccc3)cn2)c(=O)[nH]/c1=C/c1cccnc1 | > 100 µM | 0.541 µM | 0.261 µM | 0.71 µM | > 44.1 µM | 36.8 µM | > 100 µM | – | – | – | – | – | – | – | – | – | – | – | –
CC1(C)CC(=O)C2=C(C1)OC1=C(CC(C)(C)CC1=O)C2c1ccccc1Cl (stereo not drawn) | > 100 µM | > 100 µM | > 100 µM | – | > 100 µM | > 100 µM | > 100 µM | > 100 µM | > 100 µM | > 100 µM | – | – | – | – | – | – | – | – | –
CN(C)/C=C/c1ccnc2c1C(=O)c1ccccc1C2=O | 20.9 µM | > 55.5 µM | – | 3.03 µM | 18.3 µM | 16.1 µM | 21.5 µM | 31.5 µM | > 100 µM | 19.8 µM | – | – | – | – | – | – | – | – | –
CCCCCCCCCCCCCCCCCc1nc(C#N)c(N)o1 | > 100 µM | 69.6 µM | > 100 µM | > 100 µM | > 100 µM | 70.2 µM | > 100 µM | > 100 µM | – | > 100 µM | – | – | – | – | – | – | – | – | –
O=C(c1ccccc1)c1cc(-c2ccccc2)c(-c2ccccc2)[nH]c(=O)c1=O | > 100 µM | 40.4 µM | > 100 µM | > 100 µM | 57.5 µM | – | > 100 µM | > 100 µM | > 100 µM | > 100 µM | – | – | – | – | – | – | – | – | –
Cc1cc(C)n(CN(Cn2nc(C)cc2C)c2ccc(N(Cn3nc(C)cc3C)Cn3nc(C)cc3C)cc2)n1 | 31.3 µM | > 100 µM | 35.9 µM | 38.4 µM | 50.1 µM | – | 61.4 µM | 45.4 µM | 49.3 µM | 51.9 µM | – | – | – | – | – | – | – | – | –
COC(=O)C(I(OS(=O)(=O)c1ccc(C)cc1)c1ccccc1)=P(c1ccccc1)(c1ccccc1)c1ccccc1 | 30.2 µM | 45.5 µM | 36.5 µM | 31.5 µM | 36.4 µM | – | – | > 100 µM | 33.4 µM | > 100 µM | – | – | – | – | – | – | – | – | –
CN(C)CCCn1c2c(c3ccncc3c1=O)C(=O)c1ccccc1-2 | 21.8 µM | 8.66 µM | 4.15 µM | – | 6.96 µM | 5.88 µM | 13.1 µM | 11.9 µM | 9.6 µM | 19.1 µM | 0.382 µM | 0.513 µM | 0.858 µM | 1.55 µM | 1.99 µM | 2.18 µM | 0.958 µM | 1.02 µM | 0.41 µM
CCCCCCc1cc2cc(C(=O)Nc3cccc(C(F)(F)F)c3)c(=N)oc2cc1O | 4.57 µM | 6.98 µM | 5.18 µM | – | 5.68 µM | 3.01 µM | > 46.1 µM | 4.36 µM | 10.7 µM | 3.86 µM | – | – | – | – | – | – | – | – | –
O=C1c2ccccc2C(=O)c2c1c1cc(O)ccc1n2Cc1ccc(Cl)cc1Cl | 73.2 µM | > 100 µM | 27.8 µM | 38.7 µM | 33.9 µM | – | > 100 µM | 23.3 µM | – | 16.3 µM | – | – | – | – | – | – | – | – | –
N#Cc1c(C#N)c(-c2ccco2)n(/N=C/c2ccco2)c1N | > 100 µM | > 100 µM | > 100 µM | – | > 100 µM | 40 µM | > 100 µM | > 100 µM | > 100 µM | > 100 µM | – | – | – | – | – | – | – | – | –
COC[C@@H](N=Cc1ccc(OC)cc1)C(C)C | > 100 µM | – | > 100 µM | > 100 µM | > 100 µM | > 100 µM | > 100 µM | > 100 µM | – | > 100 µM | – | – | – | – | – | – | – | – | –
Clc1ccc(CCn2ccc3ccccc32)c(Cl)c1 | > 100 µM | > 100 µM | > 100 µM | – | > 100 µM | > 100 µM | > 100 µM | > 100 µM | > 100 µM | > 100 µM | – | – | – | – | – | – | – | – | –
Fc1ccccc1N=c1oc2ccc(Br)cc2cc1-c1nc2ccccc2[nH]1 | > 31.8 µM | > 100 µM | > 64.6 µM | > 42.6 µM | 26.6 µM | 4.74 µM | > 100 µM | > 100 µM | – | > 41.1 µM | – | – | – | – | – | – | – | – | –
COCN1C(=O)[C@@H]2C[C@@H](OC/C=C/CBr)CN2C(=O)c2ccccc21 | 42.7 µM | > 100 µM | 50.9 µM | 40.3 µM | > 100 µM | 27.9 µM | 45.6 µM | 56.2 µM | – | 33.3 µM | – | – | – | – | – | – | – | – | –
COc1ccc2c(c1)CCC1C2CCC2(C)C1CC[C@@]2(O)CNC(=O)/C=C/c1ccc(O)c(O)c1 (stereo partly drawn) | 19.2 µM | 3.97 µM | 19.2 µM | – | 29.7 µM | 7.18 µM | > 100 µM | 4.99 µM | 67.3 µM | 8.84 µM | 2.95 µM | 1.49 µM | 0.595 µM | 2.86 µM | 2.56 µM | 5.59 µM | 2.57 µM | 2.65 µM | 4.07 µM
Cc1c2cccc-2c(N(C)C)cc2c1[nH]c1ccccc12 | 12.6 µM | 5.74 µM | 22.5 µM | 22.4 µM | – | – | 18.9 µM | 13.6 µM | > 100 µM | 20.2 µM | – | – | – | – | – | – | – | – | –
CC1=C2CC3=C(C)C(=O)O[C@H]3C[C@@H](C)[C@@H]2CC1 | > 100 µM | > 100 µM | > 100 µM | – | > 100 µM | > 100 µM | > 100 µM | > 100 µM | > 100 µM | – | – | – | – | – | – | – | – | – | –
